In PMC6015499 (Journal of medicinal chemistry, 2017) one finds PAMPA permeability data, which are given here for twelve compounds.

Some results are limits rather than exact numbers.

This data set is described as follows: PAMPA permeability. The data set is classed as in vitro ADME. Background: The PAMPA barrier holds no transporters, so it reflects passive diffusion.
Regarding `Cc1ccccc1-c1nc(CN2CCC(C(=O)NCCN3C[C@H](C)C[C@H](C)C3)CC2)c(C)o1` [7n, N-(3-(cis-3,5-Dimethylpiperidin-1-yl)ethyl)-1-((5-methyl-2-(otolyl)oxazol-4-yl)methyl)piperidine-4-carboxamide], the PAMPA permeability is given as 712.4 1×10^−6 cm/s.
Then `Cc1cc(-c2nc(CN3CCC(C(=O)NCCCN4C[C@H](C)C[C@H](C)C4)CC3)co2)ccc1F` [18a, N-(3-(cis-3,5-Dimethylpiperidin-1-yl)propyl)-1-((2-(4-fluoro-3-methylphenyl)oxazol-4-yl)methyl)piperidine-4-carboxamide], with 215.4 1×10^−6 cm/s; and `Cc1cccc(F)c1-c1nc(CN2CCC(C(=O)NCCCN3C[C@H](C)C[C@H](C)C3)CC2)c(C)o1` [7ss, N-(3-(cis-3,5-Dimethylpiperidin-1-yl)propyl)-1-((2-(2-fluoro-6-methylphenyl)-5-methyloxazol-4-yl)methyl)piperidine-4-carboxamide], with 233.8 1×10^−6 cm/s.
Then `Cc1cc(-c2nc(CN3CCC(C(=O)NCCCN4CCC(C(C)C)CC4)CC3)co2)ccc1F` [18b, 1-((2-(4-Fluoro-3-methylphenyl)oxazol-4-yl)methyl)-N-(3-(4-isopropylpiperidin-1-yl)propyl)piperidine-4-carboxamide], with 276.4 1×10^−6 cm/s; and `Cc1oc(-c2c(Br)cccc2Br)nc1CN1CCC(C(=O)NCCCN2C[C@H](C)C[C@H](C)C2)CC1` [7ll, N-(3-(cis-3,5-Dimethylpiperidin-1-yl)propyl)-1-((2-(2,6-dibromophenyl)-5-methyloxazol-4-yl)methyl)piperidine-4-carboxamide], with <1.0 1×10^−6 cm/s; and `COc1cccc(Br)c1-c1nc(CN2CCC(C(=O)NCCCN3C[C@H](C)C[C@H](C)C3)CC2)c(C)o1` [7tt, N-(3-(cis-3,5-Dimethylpiperidin-1-yl)propyl)-1-((2-(2-bromo-6-methoxyphenyl)-5-methyloxazol-4-yl)methyl)piperidine-4-carboxamide], with 245.3 1×10^−6 cm/s.
As for `Cc1ccccc1-c1nc(CN2CCC(C(=O)NCCCN3CCCC(CC(C)C)C3)CC2)c(C)o1` (racemic) [7l, (±)-N-(3-(3-Isobutylpiperidin-1-yl)propyl)-1-((5-methyl-2-(otolyl)oxazol-4-yl)methyl)piperidine-4-carboxamide], the PAMPA permeability is 3 1×10^−6 cm/s.
On to `Cc1oc(-c2cccc(Cl)c2)nc1CN1CCC(C(=O)NCCCN2C[C@H](C)C[C@H](C)C2)CC1` [7ee, N-(3-(cis-3,5-Dimethylpiperidin-1-yl)propyl)-1-((2-(3-chlorophenyl)-5-methyloxazol-4-yl)methyl)piperidine-4-carboxamide], for which the PAMPA permeability was 615.1 1×10^−6 cm/s.
The figure for `Cc1ccccc1-c1nc(CN2CCC(C(=O)NCCCN3CC4CCCC(C4)C3)CC2)c(C)o1` [7m, N-(3-(3-Azabicyclo[3.3.1]nonan-3-yl)propyl)-1-((5-methyl-2-(otolyl)oxazol-4-yl)methyl)piperidine-4-carboxamide] is 330.9 1×10^−6 cm/s; for `Cc1ccccc1-c1nc(CN2CCC(C(=O)NCCCN3CCOCC3)CC2)c(C)o1` [7q] it is 432.4 1×10^−6 cm/s; for `Cc1ccccc1-c1nc(CN2CCC(C(=O)NCCCN3C[C@H](C)C[C@H](C)C3)CC2)c(C)o1` [7a, N-(3-(cis-3,5-Dimethylpiperidin-1-yl)propyl)-1-((5-methyl-2-(o-tolyl)oxazol-4-yl)-methyl)piperidine-4-carboxamide] it is 489.1 1×10^−6 cm/s.
The figure for `Cc1ccc(-c2nc(CN3CCC(C(=O)NCCCN4C[C@H](C)C[C@H](C)C4)CC3)c(C)o2)cc1` [7u, N-(3-(cis-3,5-Dimethylpiperidin-1-yl)propyl)-1-((5-methyl-2-(ptolyl)oxazol-4-yl)methyl)piperidine-4-carboxamide] is 274.3 1×10^−6 cm/s.
